Blank lines part the entries; values can stand above or below the compound they belong to.
Legend:
[1] = mouse liver microsome stability; type: in vitro ADME; conditions: liver microsomes, read-out: mouse liver microsome stability (T1/2)
[2] = in vivo PK, IP administration in CD1 mice; conditions: IP 30 mg/kg
[3] = PBS buffer stability; type: physicochemical
[4] = aqueous kinetic solubility; type: physicochemical
[5] = target: T1, human 5-lipoxygenase (Homo sapiens, UniProt P09917); assay: 5hLO inhibition screen; type: biochemical; conditions: Table 2
T1 sequence (P09917 1-674): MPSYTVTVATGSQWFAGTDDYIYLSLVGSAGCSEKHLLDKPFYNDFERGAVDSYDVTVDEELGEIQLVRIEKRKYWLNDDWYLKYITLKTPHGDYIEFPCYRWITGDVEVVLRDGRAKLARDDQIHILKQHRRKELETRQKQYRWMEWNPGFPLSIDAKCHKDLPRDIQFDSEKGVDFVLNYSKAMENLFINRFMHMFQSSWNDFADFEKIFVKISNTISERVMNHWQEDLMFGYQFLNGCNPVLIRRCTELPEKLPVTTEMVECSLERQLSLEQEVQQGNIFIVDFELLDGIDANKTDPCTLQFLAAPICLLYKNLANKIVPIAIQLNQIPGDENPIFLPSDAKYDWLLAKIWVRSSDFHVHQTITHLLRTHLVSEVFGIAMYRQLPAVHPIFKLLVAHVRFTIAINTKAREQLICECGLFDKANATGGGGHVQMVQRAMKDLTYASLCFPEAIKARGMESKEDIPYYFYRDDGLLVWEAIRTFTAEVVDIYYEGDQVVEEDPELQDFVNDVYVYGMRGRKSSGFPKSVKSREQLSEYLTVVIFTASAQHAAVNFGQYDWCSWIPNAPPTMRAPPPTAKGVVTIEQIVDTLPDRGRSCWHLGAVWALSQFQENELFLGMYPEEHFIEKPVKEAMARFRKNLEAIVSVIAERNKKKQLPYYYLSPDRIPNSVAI

[6] = mouse plasma stability; type: in vitro ADME
[7] = system: Caco-2; assay: Caco-2 permeability; type: in vitro ADME
[8] = target: T2, human 12-lipoxygenase (Homo sapiens, UniProt P18054); assay: human 12-lipoxygenase inhibition (12hLO) assay, absorbance at 234 nm; type: biochemical
T2 sequence (P18054 1-663): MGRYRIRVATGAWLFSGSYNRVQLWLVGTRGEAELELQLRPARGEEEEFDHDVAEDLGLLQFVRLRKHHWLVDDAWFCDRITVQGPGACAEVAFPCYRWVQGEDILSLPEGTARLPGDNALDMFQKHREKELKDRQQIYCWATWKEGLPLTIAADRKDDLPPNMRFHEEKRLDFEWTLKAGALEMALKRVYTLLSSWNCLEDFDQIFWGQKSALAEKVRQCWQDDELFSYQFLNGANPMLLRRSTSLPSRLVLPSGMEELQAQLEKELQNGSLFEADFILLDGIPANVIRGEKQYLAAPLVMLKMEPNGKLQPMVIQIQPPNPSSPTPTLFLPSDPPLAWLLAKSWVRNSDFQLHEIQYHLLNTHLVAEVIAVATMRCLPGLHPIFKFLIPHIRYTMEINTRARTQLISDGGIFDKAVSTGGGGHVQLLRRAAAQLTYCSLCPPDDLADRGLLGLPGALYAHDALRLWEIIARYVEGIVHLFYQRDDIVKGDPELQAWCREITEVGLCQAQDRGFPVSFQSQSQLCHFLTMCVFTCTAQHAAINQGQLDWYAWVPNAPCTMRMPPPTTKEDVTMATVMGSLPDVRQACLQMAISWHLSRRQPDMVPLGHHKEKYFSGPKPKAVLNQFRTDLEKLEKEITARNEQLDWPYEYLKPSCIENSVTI

[9] = system: Human islets; assay: gene expression in cytokine-stimulated human islets, Taqman real time PCR; type: cell-based; conditions: TNF-α
Method: Human islets were incubated for 22 hours following stimulation with the inflammatory cytokines IFN-γ, TNF-α, and IL-1-β alone or in the presence of compound 1 or compound 9. Control islets were incubated for 22 hours in the absence of inflammatory cytokines or compounds. Following the incubation, gene expression for 12-LO, 15-LO, 5-LO, IL-12p40, and IFN-γ were determined using Taqman real time PCR.

[10] = target: T3, human 15-lipoxygenase-2 (Homo sapiens, UniProt O15296); assay: 15hLO-2 inhibition screen; type: biochemical; conditions: Table 2
T3 sequence (O15296 1-676): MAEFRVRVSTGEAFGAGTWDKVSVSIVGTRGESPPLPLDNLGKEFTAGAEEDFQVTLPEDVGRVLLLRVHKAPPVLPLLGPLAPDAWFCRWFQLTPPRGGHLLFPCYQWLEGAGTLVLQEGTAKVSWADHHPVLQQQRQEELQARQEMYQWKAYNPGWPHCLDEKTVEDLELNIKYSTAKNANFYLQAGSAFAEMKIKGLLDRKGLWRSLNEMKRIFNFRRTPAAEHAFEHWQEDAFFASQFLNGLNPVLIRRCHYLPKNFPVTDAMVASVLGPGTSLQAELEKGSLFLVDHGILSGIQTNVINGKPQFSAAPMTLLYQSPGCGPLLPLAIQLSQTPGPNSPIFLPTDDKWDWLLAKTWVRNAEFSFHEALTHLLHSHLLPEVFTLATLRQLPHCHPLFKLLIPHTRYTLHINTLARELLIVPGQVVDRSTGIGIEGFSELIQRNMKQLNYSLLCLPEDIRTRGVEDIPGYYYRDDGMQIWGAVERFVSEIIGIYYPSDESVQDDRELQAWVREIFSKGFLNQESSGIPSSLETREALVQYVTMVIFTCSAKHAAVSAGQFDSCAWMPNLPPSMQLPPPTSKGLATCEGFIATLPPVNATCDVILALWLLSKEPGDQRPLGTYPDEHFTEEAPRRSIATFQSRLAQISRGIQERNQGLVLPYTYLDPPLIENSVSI

[11] = target: T4, recombinant human cPLA2 (Homo sapiens, UniProt P47712); assay: cPLA2 enzymatic activity assay; type: biochemical; conditions: 5 min of incubation, FIG. 8
T4 sequence (P47712 1-749): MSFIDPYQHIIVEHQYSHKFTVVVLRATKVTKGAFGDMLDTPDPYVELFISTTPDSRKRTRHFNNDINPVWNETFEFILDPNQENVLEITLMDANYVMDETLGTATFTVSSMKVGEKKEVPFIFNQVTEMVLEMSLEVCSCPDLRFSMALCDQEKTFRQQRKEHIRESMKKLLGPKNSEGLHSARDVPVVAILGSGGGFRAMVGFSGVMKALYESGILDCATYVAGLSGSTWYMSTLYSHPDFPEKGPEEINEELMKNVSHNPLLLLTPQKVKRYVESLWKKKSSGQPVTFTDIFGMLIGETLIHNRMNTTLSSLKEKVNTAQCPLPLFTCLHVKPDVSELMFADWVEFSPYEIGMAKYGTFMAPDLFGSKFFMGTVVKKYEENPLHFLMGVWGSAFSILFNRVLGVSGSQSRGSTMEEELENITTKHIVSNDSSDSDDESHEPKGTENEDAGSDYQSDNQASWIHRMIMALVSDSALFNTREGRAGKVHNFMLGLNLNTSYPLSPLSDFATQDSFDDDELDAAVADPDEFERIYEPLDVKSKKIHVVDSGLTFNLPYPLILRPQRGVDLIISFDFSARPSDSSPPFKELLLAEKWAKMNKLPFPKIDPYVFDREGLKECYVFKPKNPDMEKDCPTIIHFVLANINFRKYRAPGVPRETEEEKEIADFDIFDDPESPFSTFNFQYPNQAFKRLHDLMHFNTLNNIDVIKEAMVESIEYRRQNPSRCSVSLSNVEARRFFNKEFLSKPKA
Method: A., et al., Biochemistry, 2011, 50: 1731-1738 with the following differences. The inhibitors in solution in DMSO were added at a final concentration of 50 μM right before the recombinant enzyme was added to initiate the reaction. After 5 min of incubation, the products of reaction were analyzed, and the results depicted in FIG. 8.

[12] = relative to control islets, IFN-γ, IL-1-β stimulation, 22 hours

half-life [1]: < 10 min
t1/2 (h) (brain) ([2]; brain): 1.7 h
t1/2 (h) (plasma) ([2]; plasma): 3.5 h
tmax (h) [plasma] ([2]; plasma): 0.25 h
Tmax ([2]; mouse, brain): 30 min
Kp at 24 h ([2]; mouse, brain/plasma, average [b/p] ratio over 8 time points (24 h period)): 0.01
stability in PBS buffer (in words) [3]: excellent
PBS-pH 7.4 stability: % remaining after 48 h ([3]; PBS pH 7.4, 48 h): 100%
aqueous kinetic solubility (in words) [4]: acceptable
IC50 [5]: > 250 µM
stability in mouse plasma (in words) [6]: excellent
cell permeability (in words) [7]: good
Caco-2 (Papp 10^−6 m/s @ pH 7.4) ([7]; pH 7.4): 8.8 10^−6 m/s
times more potent as an inhibitor of 12-lipoxygenase than the dextrorotatory enantiomer ([8]; levorotatory vs dextrorotatory enantiomer): more than 58 times
SMILES: CC(=O)NC(c1cccs1)c1cc(Br)c2cccnc2c1O (single isomer, unassigned) [Compound 36, N-((5-bromo-8-hydroxyquinolin-7-yl)(thiophen-2-yl)methyl)acetamide]
crossing of the blood-brain barrier [2]: does not efficiently cross the blood-brain barrier

IC50 [5]: > 150 µM
IC50 [10]: > 150 µM
selectivity for inhibition of human 12-lipoxygenase as compared with human 5-lipoxygenase, 15-lipoxygenase-1 and 15-lipoxygenase-2 [8]: exhibited selectivity
IC50 ([8]; 12hLO Inhibition, Table 1, read-out: IC50 (μM) [± SD μM]): 1 µM
SMILES: CCC(=O)NC(c1ccco1)c1cc(Cl)c2cccnc2c1O (stereo not drawn) [Compound 9, N-((5-chloro-8-hydroxyquinolin-7-yl)(furan-2-yl)methyl)propionamide]
reduction in IFN-γ expression ([9]; induced by IFN-γ, IL-1-β): 4 fold
reduction in IL-12p40 mRNA expression ([9]; induced by IFN-γ, IL-1-β): 40 fold
Change in Gene Expression 5-LO [9, 12]: 1
Change in Gene Expression 12-LO [9, 12]: 12
Change in Gene Expression 15-LO [9, 12]: 4
Change in Gene Expression IFN-γ [9, 12]: 4
Change in Gene Expression IL-12p40 [9, 12]: 3

inhibition at 50 µM [11]: ~60%
SMILES: O=c1cc(-c2ccccc2)oc2cc(O)c(O)c(O)c12 [baicalein, reference compound]
